Earlier results as cited in US8192775B2, “Crystallization of polyol compositions, crystalline polyol composition product and use thereof” (Danisco Sweeteners Oy, priority 2002, dated 2012).

Settings: water at 20° C.

Row | Compound | solubility in water
1 | OC[C@@H](O)[C@@H](O[C@H]1O[C@H](CO)[C@@H](O)[C@H](O)[C@H]1O)[C@H](O)[C@@H](O)CO [Maltitol] | 62 % (w/w)
2 | OC[C@@H](O)[C@H](O)[C@@H](O)CO [Xylitol] | 63 (w/w)
